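Each compound was tested at five concentrations against cells in 96-well plates for 48 hours. TGI: concentration producing complete growth inhibition.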
Assays:
Assay in all cases: inhibition of tumour cell growth, NCI panel, 48 h
[1] = test system: OVCAR-3 ovarian
[2] = test system: SNB-19 CNS
[3] = test system: SR leukemia
[4] = test system: UACC-257 melanoma
[5] = test system: NCI-H522 lung
[6] = test system: SF-268 CNS
[7] = test system: OVCAR-5 ovarian
[8] = test system: RXF 393 renal
[9] = test system: UO-31 renal
[10] = test system: SK-MEL-28 melanoma
[11] = test system: UACC-62 melanoma
[12] = test system: PC-3 prostate
[13] = test system: HCC-2998 colon
[14] = test system: MDA-MB-231 breast
[15] = test system: OVCAR-4 ovarian
[16] = test system: ACHN renal
[17] = test system: HOP-92 NSCLC
[18] = test system: SW-620 colon
[19] = test system: NCI-H226 lung
[20] = test system: A498 renal
[21] = test system: DU-145 prostate
[22] = test system: SK-OV-3 ovarian
[23] = test system: 786-0 renal
[24] = test system: A549 NSCLC
[25] = test system: SF-539 CNS
[26] = test system: NCI/ADR-RES ovarian
[27] = test system: HCT-15 colon
[28] = test system: EKVX NSCLC
[29] = test system: U251 CNS
[30] = test system: BT-549 breast
[31] = test system: MDA-MB-435
[32] = test system: MDA-N
[33] = test system: SN12C renal
[34] = test system: OVCAR-8 ovarian
[35] = test system: MALME-3M melanoma
[36] = test system: SNB-75 CNS
[37] = test system: NCI-H23 lung
[38] = test system: RPMI-8226 leukemia
[39] = test system: SK-MEL-5 melanoma
[40] = test system: K-562 leukemia
[41] = test system: SF-295 CNS
[42] = test system: HT29 colon
[43] = test system: KM12 colon
[44] = test system: COLO 205 colon
[45] = test system: LOX IMVI melanoma
[46] = test system: T-47D breast
[47] = test system: MOLT-4 leukemia
[48] = test system: HS 578T breast
[49] = test system: TK-10 renal
[50] = test system: HCT-116 colon
[51] = test system: SK-MEL-2 melanoma
[52] = test system: M14 melanoma
[53] = test system: MCF7 breast
[54] = test system: CAKI-1 renal
[55] = test system: IGROV1 ovarian
[56] = test system: HOP-62 NSCLC
[57] = test system: NCI-H460 lung
[58] = test system: CCRF-CEM leukemia

## Nc1ccn(C2OC(COP(=O)(O)OCC3OC(n4cc(F)c(=O)[nH]c4=O)CC3O)C(O)C2O)c(=O)n1 (stereo unspecified)
[1]
  TGI: > 100 µM
[2]
  TGI: > 100 µM
[3]
  TGI: > 88.6 µM
[4]
  TGI: > 100 µM
[5]
  TGI: > 100 µM
[6]
  TGI: > 100 µM
[7]
  TGI: > 100 µM
[8]
  TGI: > 100 µM
[9]
  TGI: > 100 µM
[10]
  TGI: > 100 µM
[11]
  TGI: > 100 µM
[12]
  TGI: > 100 µM
[13]
  TGI: > 100 µM
[14]
  TGI: > 100 µM
[15]
  TGI: > 100 µM
[16]
  TGI: > 34.2 µM
[17]
  TGI: > 100 µM
[18]
  TGI: > 100 µM
[19]
  TGI: > 100 µM
[20]
  TGI: 99.3 µM
[21]
  TGI: > 100 µM
[22]
  TGI: > 100 µM
[23]
  TGI: > 100 µM
[24]
  TGI: > 100 µM
[25]
  TGI: > 100 µM
[26]
  TGI: > 100 µM
[27]
  TGI: > 100 µM
[28]
  TGI: > 100 µM
[29]
  TGI: > 100 µM
[30]
  TGI: > 100 µM
[31]
  TGI: > 100 µM
[32]
  TGI: > 100 µM
[33]
  TGI: > 100 µM
[34]
  TGI: > 100 µM
[35]
  TGI: > 100 µM
[36]
  TGI: > 100 µM
[37]
  TGI: > 42.1 µM
[38]
  TGI: > 100 µM
[39]
  TGI: > 100 µM
[40]
  TGI: > 100 µM
[41]
  TGI: > 100 µM
[42]
  TGI: > 100 µM
[43]
  TGI: > 100 µM
[44]
  TGI: > 100 µM
[45]
  TGI: > 100 µM
[46]
  TGI: > 100 µM
[47]
  TGI: 7.95 µM
[48]
  TGI: > 100 µM
[49]
  TGI: > 100 µM
[50]
  TGI: > 100 µM
[51]
  TGI: > 100 µM
[52]
  TGI: 12.9 µM
[53]
  TGI: > 100 µM
[54]
  TGI: > 50.1 µM
[55]
  TGI: > 100 µM

## O=C1CC2(CCC(O)(c3cccc4ccccc34)C(C(=O)c3cccc4ccccc34)C2)C(=O)c2ccccc2N1 (stereo unspecified)
[1]
  TGI: > 100 µM
[2]
  TGI: 47.7 µM
[3]
  TGI: > 100 µM
[4]
  TGI: > 100 µM
[6]
  TGI: 91.6 µM
[7]
  TGI: > 100 µM
[8]
  TGI: 36.9 µM
[9]
  TGI: > 100 µM
[10]
  TGI: > 100 µM
[56]
  TGI: 40.4 µM
[11]
  TGI: > 100 µM
[12]
  TGI: > 100 µM
[13]
  TGI: > 100 µM
[14]
  TGI: 68 µM
[17]
  TGI: 36.7 µM
[18]
  TGI: > 100 µM
[19]
  TGI: > 100 µM
[20]
  TGI: > 100 µM
[21]
  TGI: > 100 µM
[22]
  TGI: > 100 µM
[24]
  TGI: > 100 µM
[25]
  TGI: > 100 µM
[26]
  TGI: > 100 µM
[27]
  TGI: > 100 µM
[28]
  TGI: > 100 µM
[29]
  TGI: > 100 µM
[30]
  TGI: > 100 µM
[31]
  TGI: > 100 µM
[32]
  TGI: > 100 µM
[33]
  TGI: > 100 µM
[34]
  TGI: > 100 µM
[35]
  TGI: > 100 µM
[36]
  TGI: 34.3 µM
[37]
  TGI: > 100 µM
[39]
  TGI: > 100 µM
[40]
  TGI: > 100 µM
[41]
  TGI: > 100 µM
[57]
  TGI: 23.6 µM
[42]
  TGI: > 100 µM
[44]
  TGI: > 100 µM
[45]
  TGI: > 100 µM
[46]
  TGI: > 100 µM
[47]
  TGI: > 100 µM
[48]
  TGI: 47.9 µM
[49]
  TGI: > 100 µM
[50]
  TGI: > 100 µM
[51]
  TGI: > 100 µM
[52]
  TGI: > 100 µM
[53]
  TGI: > 100 µM
[54]
  TGI: > 100 µM
[55]
  TGI: > 100 µM

## Cc1ccc(S(=O)(=O)NCCN(CCNS(=O)(=O)c2ccc(C)cc2)S(=O)(=O)c2ccc(C)cc2)cc1
[1]
  TGI: > 100 µM
[2]
  TGI: > 100 µM
[3]
  TGI: > 100 µM
[4]
  TGI: > 100 µM
[5]
  TGI: > 100 µM
[6]
  TGI: > 100 µM
[7]
  TGI: > 100 µM
[8]
  TGI: > 100 µM
[9]
  TGI: > 100 µM
[10]
  TGI: > 100 µM
[56]
  TGI: > 100 µM
[11]
  TGI: > 100 µM
[12]
  TGI: > 100 µM
[13]
  TGI: > 100 µM
[14]
  TGI: > 100 µM
[15]
  TGI: 56 µM
[16]
  TGI: > 100 µM
[18]
  TGI: > 100 µM
[20]
  TGI: > 100 µM
[21]
  TGI: > 100 µM
[22]
  TGI: > 100 µM
[23]
  TGI: > 100 µM
[24]
  TGI: > 100 µM
[25]
  TGI: > 100 µM
[26]
  TGI: > 100 µM
[27]
  TGI: > 100 µM
[28]
  TGI: > 100 µM
[29]
  TGI: > 100 µM
[30]
  TGI: > 100 µM
[31]
  TGI: > 100 µM
[32]
  TGI: > 100 µM
[33]
  TGI: > 100 µM
[34]
  TGI: > 100 µM
[35]
  TGI: 60 µM
[37]
  TGI: > 100 µM
[38]
  TGI: > 100 µM
[39]
  TGI: > 100 µM
[40]
  TGI: > 100 µM
[41]
  TGI: > 100 µM
[57]
  TGI: > 100 µM
[42]
  TGI: > 100 µM
[43]
  TGI: > 100 µM
[44]
  TGI: > 100 µM
[45]
  TGI: > 100 µM
[46]
  TGI: > 100 µM
[47]
  TGI: > 100 µM
[48]
  TGI: > 100 µM
[58]
  TGI: > 100 µM
[49]
  TGI: > 100 µM
[50]
  TGI: > 100 µM
[51]
  TGI: > 100 µM
[52]
  TGI: > 100 µM
[53]
  TGI: > 100 µM
[54]
  TGI: > 100 µM
[55]
  TGI: > 100 µM

Reference: PubChem BioAssay (NCI)
